Positions count from the first letter of the chain named. pKd: −log10 of the molar value. Read-outs that look alike come from different tables or passages of the source. Ends that are not written are not given here.
Legend:
Type in all cases: binding
LIN7B PDZ = biological target: T1, LIN7B PDZ (Homo sapiens, UniProt Q9HAP6); assay: Holdup assay; conditions: for Kd: composite holdup affinity, 0.00=below quantification threshold, read-out: COMP pKd (converted)
T1 sequence (Q9HAP6 93-175 limits assumed): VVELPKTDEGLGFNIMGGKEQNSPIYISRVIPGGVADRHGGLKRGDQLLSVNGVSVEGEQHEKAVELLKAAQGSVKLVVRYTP

DLG1_1 PDZ = DLG1_1 PDZ (Homo sapiens, UniProt Q12959); assay: Holdup assay; conditions: for Kd: composite holdup affinity, 0.00=below quantification threshold, read-out: COMP pKd (converted)
DLG4_3 PDZ = DLG4_3 PDZ (Homo sapiens, UniProt P78352); assay: Holdup assay; conditions: for Kd: composite holdup affinity, 0.00=below quantification threshold, read-out: COMP pKd (converted)
Sequence of DLG4_3 PDZ (P78352 313-393 limits assumed): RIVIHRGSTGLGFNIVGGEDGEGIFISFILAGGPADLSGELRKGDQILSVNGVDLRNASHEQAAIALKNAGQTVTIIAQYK

ARHGEF12 PDZ = biological target: T2, ARHGEF12 PDZ (Homo sapiens, UniProt Q9NZN5); assay: Holdup assay; conditions: for Kd: composite holdup affinity, 0.00=below quantification threshold, read-out: COMP pKd (converted)
T2 sequence (Q9NZN5 72-151 limits assumed): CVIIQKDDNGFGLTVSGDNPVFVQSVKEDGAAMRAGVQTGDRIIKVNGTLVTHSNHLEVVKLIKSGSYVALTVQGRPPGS

SCRIB2 PDZ = biological target: T3, SCRIB2 PDZ (Homo sapiens, UniProt Q14160); assay: Holdup assay; conditions: for Kd: composite holdup affinity, 0.00=below quantification threshold, read-out: COMP pKd (converted)
T3 sequence (Q14160 862-950 limits assumed): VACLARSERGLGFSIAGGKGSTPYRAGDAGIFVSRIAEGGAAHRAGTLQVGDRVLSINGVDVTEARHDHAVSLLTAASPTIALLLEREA

DLG3_1 PDZ = biological target: T4, DLG3_1 PDZ (Homo sapiens, UniProt Q92796); assay: Holdup assay; conditions: for Kd: composite holdup affinity, 0.00=below quantification threshold, read-out: COMP pKd (converted)
T4 sequence (Q92796 130-217 limits assumed): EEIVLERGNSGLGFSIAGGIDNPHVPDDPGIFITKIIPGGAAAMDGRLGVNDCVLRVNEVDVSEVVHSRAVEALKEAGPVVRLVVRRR

DLG3_3 PDZ = biological target: T5, DLG3_3 PDZ (Homo sapiens, UniProt Q92796); assay: Holdup assay; conditions: for Kd: composite holdup affinity, 0.00=below quantification threshold, read-out: COMP pKd (converted)
T5 sequence (Q92796 379-465 limits assumed): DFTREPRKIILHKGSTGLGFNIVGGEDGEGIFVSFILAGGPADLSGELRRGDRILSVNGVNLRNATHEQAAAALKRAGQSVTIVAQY

MAST2 PDZ = biological target: T6, MAST2 PDZ (Homo sapiens, UniProt Q6P0Q8); assay: biochemical; conditions: composite holdup affinity; 0.00=below quantification threshold; read-out: COMP pKd (converted)
T6 sequence (Q6P0Q8 1104-1192 limits assumed): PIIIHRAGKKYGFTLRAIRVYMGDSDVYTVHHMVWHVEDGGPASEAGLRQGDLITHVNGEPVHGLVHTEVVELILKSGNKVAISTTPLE

SNTA1 PDZ = biological target: T7, SNTA1 PDZ (Homo sapiens, UniProt Q13424); assay: Holdup assay; conditions: for Kd: composite holdup affinity, 0.00=below quantification threshold, read-out: COMP pKd (converted)
T7 sequence (Q13424 87-170 limits assumed): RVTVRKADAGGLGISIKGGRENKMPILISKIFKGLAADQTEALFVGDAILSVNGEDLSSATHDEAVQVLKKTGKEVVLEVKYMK

PDZD7_3 PDZ = biological target: T8, PDZD7_3 PDZ (Homo sapiens, UniProt Q9H5P4); assay: Holdup assay; conditions: for Kd: composite holdup affinity, 0.00=below quantification threshold, read-out: COMP pKd (converted)
T8 sequence (Q9H5P4 862-934 limits assumed): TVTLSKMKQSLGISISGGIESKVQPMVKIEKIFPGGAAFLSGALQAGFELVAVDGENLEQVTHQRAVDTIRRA

LIN7C PDZ = biological target: T9, LIN7C PDZ (Homo sapiens, UniProt Q9NUP9); assay: Holdup assay; conditions: for Kd: composite holdup affinity, 0.00=below quantification threshold, read-out: COMP pKd (converted)
T9 sequence (Q9NUP9 93-175 limits assumed): T1 sequence (Q9HAP6 93-175 limits assumed) with D8E, V30I, V35I, Q60H, S74K

DLG2_2 PDZ = DLG2_2 PDZ (Homo sapiens, UniProt Q15700); assay: Holdup assay; conditions: for Kd: composite holdup affinity, 0.00=below quantification threshold, read-out: COMP pKd (converted)
Sequence of DLG2_2 PDZ (Q15700 193-279 limits assumed): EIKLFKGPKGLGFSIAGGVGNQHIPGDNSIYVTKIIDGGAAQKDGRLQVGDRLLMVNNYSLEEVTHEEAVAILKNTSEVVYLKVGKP

MAGI3_2 PDZ = MAGI3_2 PDZ (Homo sapiens, UniProt Q5TCQ9); assay: Holdup assay; conditions: for Kd: composite holdup affinity, 0.00=below quantification threshold, read-out: COMP pKd (converted)
Sequence of MAGI3_2 PDZ (Q5TCQ9 410-492 limits assumed): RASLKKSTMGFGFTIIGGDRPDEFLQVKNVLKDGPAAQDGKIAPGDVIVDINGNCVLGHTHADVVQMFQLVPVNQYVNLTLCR

PDZRN4_1 PDZ = biological target: T10, PDZRN4_1 PDZ (Homo sapiens, UniProt Q6ZMN7); assay: Holdup assay; conditions: for Kd: composite holdup affinity, 0.00=below quantification threshold, read-out: COMP pKd (converted)
T10 sequence (Q6ZMN7 224-314 limits assumed): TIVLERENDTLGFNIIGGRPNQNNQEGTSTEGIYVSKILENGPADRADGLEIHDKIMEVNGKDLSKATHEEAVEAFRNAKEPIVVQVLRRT

PDZRN3_1 PDZ = biological target: T11, PDZRN3_1 PDZ (Homo sapiens, UniProt Q9UPQ7); assay: Holdup assay; conditions: for Kd: composite holdup affinity, 0.00=below quantification threshold, read-out: COMP pKd (converted)
T11 sequence (Q9UPQ7 249-339 limits assumed): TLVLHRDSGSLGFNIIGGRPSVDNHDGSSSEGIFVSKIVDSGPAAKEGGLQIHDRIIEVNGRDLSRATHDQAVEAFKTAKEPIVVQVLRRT

MAGI2_4 PDZ = MAGI2_4 PDZ (Homo sapiens, UniProt Q86UL8); assay: Holdup assay; conditions: for Kd: composite holdup affinity, 0.00=below quantification threshold, read-out: COMP pKd (converted)
Sequence of MAGI2_4 PDZ (Q86UL8 778-860 limits assumed): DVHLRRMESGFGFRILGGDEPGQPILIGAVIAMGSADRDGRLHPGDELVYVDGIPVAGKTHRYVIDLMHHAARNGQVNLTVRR

SNTG1 PDZ = biological target: T12, SNTG1 PDZ (Homo sapiens, UniProt Q9NSN8); assay: Holdup assay; conditions: for Kd: composite holdup affinity, 0.00=below quantification threshold, read-out: COMP pKd (converted)
T12 sequence (Q9NSN8 57-140 limits assumed): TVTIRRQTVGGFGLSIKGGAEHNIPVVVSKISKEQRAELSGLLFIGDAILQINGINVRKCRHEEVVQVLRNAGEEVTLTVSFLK

DLG1_2 PDZ = DLG1_2 PDZ (Homo sapiens, UniProt Q12959); assay: Holdup assay; conditions: for Kd: composite holdup affinity, 0.00=below quantification threshold, read-out: COMP pKd (converted)
MAGI2_5 PDZ = MAGI2_5 PDZ (Homo sapiens, UniProt Q86UL8); assay: Holdup assay; conditions: for Kd: composite holdup affinity, 0.00=below quantification threshold, read-out: COMP pKd (converted)
Sequence of MAGI2_5 PDZ (Q86UL8 920-1010 limits assumed): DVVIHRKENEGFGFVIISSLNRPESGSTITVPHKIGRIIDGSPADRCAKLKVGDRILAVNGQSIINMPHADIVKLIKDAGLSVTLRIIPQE

LAP2 PDZ = LAP2 PDZ (Homo sapiens, UniProt Q96RT1); assay: Holdup assay; conditions: for Kd: composite holdup affinity, 0.00=below quantification threshold, read-out: COMP pKd (converted)
Sequence of LAP2 PDZ (Q96RT1 1321-1410 limits assumed): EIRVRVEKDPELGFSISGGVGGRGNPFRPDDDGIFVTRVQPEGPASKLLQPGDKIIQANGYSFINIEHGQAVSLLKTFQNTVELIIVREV

NOS1 PDZ = NOS1 PDZ (Homo sapiens, UniProt P29475); assay: Holdup assay; conditions: for Kd: composite holdup affinity, 0.00=below quantification threshold, read-out: COMP pKd (converted)
Sequence of NOS1 PDZ (P29475 17-99 limits assumed): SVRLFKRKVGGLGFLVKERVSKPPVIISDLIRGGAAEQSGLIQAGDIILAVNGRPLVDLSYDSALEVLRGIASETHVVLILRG

MAGI2_2 PDZ = MAGI2_2 PDZ (Homo sapiens, UniProt Q86UL8); assay: Holdup assay; conditions: for Kd: composite holdup affinity, 0.00=below quantification threshold, read-out: COMP pKd (converted)
Sequence of MAGI2_2 PDZ (Q86UL8 426-510 limits assumed): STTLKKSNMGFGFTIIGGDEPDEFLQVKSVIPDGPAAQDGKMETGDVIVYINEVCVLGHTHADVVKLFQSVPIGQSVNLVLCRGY

SNX27 PDZ = SNX27 PDZ (Homo sapiens, UniProt Q96L92); assay: Holdup assay; conditions: composite holdup affinity; 0.00=below quantification threshold; read-out: COMP pKd (converted)
PDZD2_2 PDZ = biological target: T13, PDZD2_2 PDZ (Homo sapiens, UniProt O15018); assay: Holdup assay; conditions: for Kd: composite holdup affinity, 0.00=below quantification threshold, read-out: COMP pKd (converted)
T13 sequence (O15018 334-419 limits assumed): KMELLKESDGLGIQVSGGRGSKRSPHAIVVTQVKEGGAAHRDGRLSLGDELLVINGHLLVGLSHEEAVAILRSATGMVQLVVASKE

DLG4_1 PDZ = DLG4_1 PDZ (Homo sapiens, UniProt P78352); assay: Holdup assay; conditions: for Kd: composite holdup affinity, 0.00=below quantification threshold, read-out: COMP pKd (converted)
Sequence of DLG4_1 PDZ (P78352 65-151): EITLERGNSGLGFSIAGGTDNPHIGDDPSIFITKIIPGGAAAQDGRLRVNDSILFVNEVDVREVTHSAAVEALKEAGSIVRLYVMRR

DLG4_2 PDZ = DLG4_2 PDZ (Homo sapiens, UniProt P78352); assay: Holdup assay; conditions: for Kd: composite holdup affinity, 0.00=below quantification threshold, read-out: COMP pKd (converted)
Sequence of DLG4_2 PDZ (P78352 160-246 limits assumed): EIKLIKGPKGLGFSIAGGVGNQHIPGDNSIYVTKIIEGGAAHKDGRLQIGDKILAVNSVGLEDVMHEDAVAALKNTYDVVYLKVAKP

Molecule: CC(C)C[C@H](NC(=O)[C@@H](N)CCCNC(=N)N)C(=O)N[C@@H](CCC(N)=O)C(=O)N[C@@H](CCCNC(=N)N)C(=O)N[C@@H](CCCNC(=N)N)C(=O)N[C@@H](CCCNC(=N)N)C(=O)N[C@@H](CCC(=O)O)C(=O)N[C@H](C(=O)N[C@@H](CCC(N)=O)C(=O)N[C@H](C(=O)O)C(C)C)[C@@H](C)O [HPV18-E6]
- pKd (LIN7B PDZ): 3.58
- pKd (DLG1_1 PDZ): 5.26
- pKd (DLG4_3 PDZ): 5.74
- pKd (ARHGEF12 PDZ): 3.91
- pKd (SCRIB2 PDZ): 4.44
- pKd (DLG3_1 PDZ): 4.34
- pKd (DLG3_3 PDZ): 5.44
- Kd (MAST2 PDZ): 16.6 µM
- pKd (SNTA1 PDZ): 4.70
- pKd (PDZD7_3 PDZ): 3.98
- pKd (LIN7C PDZ): 4.17
- pKd (DLG2_2 PDZ): 5.19
- pKd (MAGI3_2 PDZ): 5.56
- pKd (PDZRN4_1 PDZ): 4.48
- pKd (PDZRN3_1 PDZ): 4.82
- pKd (MAGI2_4 PDZ): 4.28
- pKd (SNTG1 PDZ): 3.93
- pKd (DLG1_2 PDZ): 5.78
- pKd (MAGI2_5 PDZ): 3.78
- pKd (LAP2 PDZ): 3.61
- pKd (NOS1 PDZ): 3.71
- pKd (MAGI2_2 PDZ): 5.16
- Kd (SNX27 PDZ): 28.2 µM
- pKd (PDZD2_2 PDZ): 3.36
- pKd (DLG4_1 PDZ): 5.11
- pKd (DLG4_2 PDZ): 5.46

Molecule: SKPTRRETEV [HPV35-E6]
- Kd (LIN7B PDZ): 324 µM
- Kd (DLG1_1 PDZ): 9.55 µM
- Kd (DLG4_3 PDZ): 6.31 µM
- Kd (ARHGEF12 PDZ): 87.1 µM
- Kd (SCRIB2 PDZ): 20 µM
- Kd (DLG3_1 PDZ): 35.5 µM
- Kd (DLG3_3 PDZ): 6.61 µM
- Kd (MAST2 PDZ): 8.13 µM
- Kd (SNTA1 PDZ): 14.1 µM
- Kd (PDZD7_3 PDZ): 50.1 µM
- Kd (LIN7C PDZ): 174 µM
- Kd (DLG2_2 PDZ): 5.37 µM
- Kd (MAGI3_2 PDZ): 4.07 µM
- Kd (PDZRN4_1 PDZ): 41.7 µM
- Kd (PDZRN3_1 PDZ): 12.9 µM
- Kd (MAGI2_4 PDZ): 45.7 µM
- Kd (SNTG1 PDZ): 49 µM
- Kd (DLG1_2 PDZ): 2.29 µM
- Kd (MAGI2_5 PDZ): 66.1 µM
- Kd (LAP2 PDZ): 204 µM
- Kd (NOS1 PDZ): 182 µM
- Kd (MAGI2_2 PDZ): 11.7 µM
- Kd (SNX27 PDZ): 21.9 µM
- Kd (PDZD2_2 PDZ): 166 µM
- Kd (DLG4_1 PDZ): 8.13 µM
- Kd (DLG4_2 PDZ): 3.09 µM

Molecule: SRRPRTETQV [HPV31-E6]
- Kd (LIN7B PDZ): 209 µM
- Kd (DLG1_1 PDZ): 6.92 µM
- Kd (DLG4_3 PDZ): 7.94 µM
- Kd (ARHGEF12 PDZ): 138 µM
- Kd (SCRIB2 PDZ): 41.7 µM
- Kd (DLG3_1 PDZ): 36.3 µM
- Kd (DLG3_3 PDZ): 7.94 µM
- Kd (MAST2 PDZ): 5.89 µM
- Kd (SNTA1 PDZ): 51.3 µM
- Kd (PDZD7_3 PDZ): 195 µM
- Kd (LIN7C PDZ): 117 µM
- Kd (DLG2_2 PDZ): 4.27 µM
- Kd (MAGI3_2 PDZ): 1.35 µM
- Kd (PDZRN4_1 PDZ): 64.6 µM
- Kd (PDZRN3_1 PDZ): 81.3 µM
- Kd (MAGI2_4 PDZ): 33.1 µM
- Kd (SNTG1 PDZ): 58.9 µM
- Kd (DLG1_2 PDZ): 1.62 µM
- Kd (MAGI2_5 PDZ): 129 µM
- Kd (LAP2 PDZ): 126 µM
- Kd (NOS1 PDZ): 123 µM
- Kd (MAGI2_2 PDZ): 0.417 µM
- Kd (SNX27 PDZ): 22.9 µM
- Kd (PDZD2_2 PDZ): 200 µM
- Kd (DLG4_1 PDZ): 9.55 µM
- Kd (DLG4_2 PDZ): 4.37 µM
